Test results published in patent US20230120142A1, “COMPOSITIONS AND METHODS FOR THE TREATMENT OF INTRACELLULAR BACTERIAL INFECTIONS” (Endolytix Technology, Inc., priority 2020, published 2023).

system: M. abscessus cells; experiment: Cell growth assay of ABIα plus antibiotic, Fractional Inhibitory Concentration (FIC) index; format: cell-based, Mycobacterium abscessus; conditions: antibiotic in combination with ABIα cocktail; FIG. 5

Structure (SMILES) | interaction by Fractional Inhibitory Concentration (FIC) index on attenuation of M. abscessus growth
CO[C@@]1(NC(=O)Cc2cccs2)C(=O)N2C(C(=O)O)=C(COC(N)=O)CS[C@@H]21 [cefoxitin] | synergistic effects
C[C@@H](O)[C@H]1C(=O)N2C(C(=O)[O-])=C(SC3Cn4cnc[n+]4C3)[C@H](C)[C@H]12 (stereo partly drawn) [biapenem] | synergistic effects
NCC[C@H](O)C(=O)N[C@@H]1C[C@H](N)[C@@H](O[C@H]2O[C@H](CN)[C@@H](O)[C@H](O)[C@H]2O)[C@H](O)[C@H]1O[C@H]1O[C@H](CO)[C@@H](O)[C@H](N)[C@H]1O [amikacin] | synergistic effects
